In patent US9107879B1, “Methods of increasing the cytotoxicity of chemotherapeutic agents with multisubstrate inhibitors of histone, protein-lys, polyamine acetylation, and polyamine metabolism” (Vanderbilt University, priority 2010, dated 2015):

How the values were obtained:
[1] = molecular target: T1, recombinant p300 (1284-1660) (Homo sapiens, UniProt Q09472); assay: p300 HAT solution assay, H4 peptide substrate, DTNB detection; format: biochemical
T1 construct: p300 protein (residues 1284-1660); made in house
T1 sequence (Q09472 1284-1660): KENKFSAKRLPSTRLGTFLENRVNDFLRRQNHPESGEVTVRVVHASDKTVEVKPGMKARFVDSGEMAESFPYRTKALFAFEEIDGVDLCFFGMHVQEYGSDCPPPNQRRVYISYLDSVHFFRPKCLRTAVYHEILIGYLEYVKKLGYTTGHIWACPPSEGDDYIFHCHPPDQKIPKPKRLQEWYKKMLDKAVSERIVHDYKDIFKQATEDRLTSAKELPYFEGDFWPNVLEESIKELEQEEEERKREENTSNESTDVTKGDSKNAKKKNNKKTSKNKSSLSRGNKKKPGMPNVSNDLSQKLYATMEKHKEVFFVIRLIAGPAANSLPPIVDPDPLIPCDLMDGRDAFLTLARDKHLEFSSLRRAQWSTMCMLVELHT
Description: (§1) (A) Structures of compound 1a (spermidine CoA), and the acetylated side chain of a lysine residue of a polypeptide chain. (B) Inhibition of p300 acetylating activity as a function of 1a concentration. The catalytic domain of recombinant p300 (1284-1660) was assayed under steady state conditions using an N-terminal acetylated histone H4 peptide substrate, Ac-H4(1-19)-NH2. Closed circles represent experimental data points; plain line represents theoretical profile based on data reduction software (Prism) using a one site inhibition model. (C) In vitro assay of p300 activity using a 96-well assay kit (ActivMotif) and an H3 peptide substrate (5-23), according to manufacturer's instructions. Bars represent average of duplicates. BK=background (no enzyme); C=control (no inhibitor); [1a]=50 μM.
Assays were performed using the fluorescent HAT assay kit (Active Motif, Carlsbad, Calif.), an H3 peptide as substrate (residues 5-23), the p300 catalytic domain as enzyme, and 50 μM inhibitor in duplicate, according to the manufacturer's instructions. […] The reaction product, CoASH, was detected spectrophotometrically by reaction with 5,5′-dithiobis-2-nitrobenzoic acid (DTNB). Assays were carried out at 30° C. for 30 minutes, conditions which had previously been determined in kinetic assays to sufficient to achieve steady state. […]

p300 catalytic domain = molecular target: T2, p300 catalytic domain (Homo sapiens, UniProt Q09472); assay: fluorescent HAT assay kit (Active Motif), 96-well; format: biochemical
T2 construct: the catalytic domain of p300(965-1810); purchased Active Motif, Carlsbad, Calif
T2 sequence (Q09472 965-1810): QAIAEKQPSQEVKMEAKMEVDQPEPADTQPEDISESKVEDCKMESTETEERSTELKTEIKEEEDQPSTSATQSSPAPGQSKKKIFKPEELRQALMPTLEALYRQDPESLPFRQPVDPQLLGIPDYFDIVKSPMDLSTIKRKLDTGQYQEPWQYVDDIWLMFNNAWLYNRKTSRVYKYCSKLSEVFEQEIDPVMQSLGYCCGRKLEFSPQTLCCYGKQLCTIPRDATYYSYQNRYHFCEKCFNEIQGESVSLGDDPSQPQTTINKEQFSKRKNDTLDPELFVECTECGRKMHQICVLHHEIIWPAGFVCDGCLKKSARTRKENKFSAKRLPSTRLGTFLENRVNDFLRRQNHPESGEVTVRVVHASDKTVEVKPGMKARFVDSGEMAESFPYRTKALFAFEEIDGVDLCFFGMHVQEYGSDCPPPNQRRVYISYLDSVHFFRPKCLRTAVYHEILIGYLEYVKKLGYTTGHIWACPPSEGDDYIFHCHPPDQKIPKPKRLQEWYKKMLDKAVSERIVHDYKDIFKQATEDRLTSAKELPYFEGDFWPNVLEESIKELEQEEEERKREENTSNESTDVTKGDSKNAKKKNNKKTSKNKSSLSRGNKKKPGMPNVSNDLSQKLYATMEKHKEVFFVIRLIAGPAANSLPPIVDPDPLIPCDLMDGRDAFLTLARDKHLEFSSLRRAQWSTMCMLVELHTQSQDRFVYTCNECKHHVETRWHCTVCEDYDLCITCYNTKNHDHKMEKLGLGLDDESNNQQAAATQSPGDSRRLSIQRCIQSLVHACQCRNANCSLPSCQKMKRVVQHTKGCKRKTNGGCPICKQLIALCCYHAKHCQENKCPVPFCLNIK
Description: as §1, with “BK=background (no enzyme); C=control (no inhibitor); [1a]=50 μM.” left out
Reactions were set up in duplicate following the protocol supplied by the kit. […] Activity is measured in fluorescence units. […]
Assays were performed using the fluorescent HAT assay kit (Active Motif, Carlsbad, Calif.), an H3 peptide as substrate (residues 5-23), the p300 catalytic domain as enzyme, and 50 μM inhibitor in duplicate, according to the manufacturer's instructions. […] The reaction product, CoASH, was detected spectrophotometrically by reaction with 5,5′-dithiobis-2-nitrobenzoic acid (DTNB). Assays were carried out at 30° C. for 30 minutes, conditions which had previously been determined in kinetic assays to sufficient to achieve steady state.

[2] = 5 mM, approximately 10 mg/kg, twice per week for 3 weeks
Description: They injected a second set of 4 mice with 100 μl of spd-3a (5 mM, approximately 10 mg/kg, or about 0.25 mM initial blood concentration), twice per week for 3 weeks.

[3] = tested on: endogenous HATs associated with solubilized chromatin; conditions: literature (Bandyopadhyay et al 2009; Parello et al. 1990); cited from earlier work
[4] = tested on: BT20 breast cancer cell line (TNBC); assay: 3-day viability assay; format: cell-based; conditions: spd-2a increasing doses; camptothecin 5 nM
Excerpt: The effect of spd-2a on the BT20 breast cancer cell line derived form a spontaneous TNBC with wild-type BrCal was examined. […] Having previously established that spd-2a is a therapy sensitizer, the present inventors then examined the combined effects of spd-2a and camptothecin (the basis for the chemotherapeutic drug, Irinotecan).

CC(C)(COP(=O)(O)OP(=O)(O)OC[C@H]1O[C@@H](n2cnc3c(N)ncnc32)[C@H](O)[C@@H]1OP(=O)(O)O)[C@@H](O)C(=O)NCCC(=O)NCCSCC(=O)NCCCNCCCCN [1a, spermidine[N1]-CoA]
Ki ([1]; from IC50=Ki(1+Km/S)≅Ki under substrate excess, read-out: estimated Ki for p300 fragment): 50 to 100 µM | IC50 ([1]; histone H4 N-terminal peptide substrate, inferred from inhibitory plot, one site model, read-out: IC50, p300HAT catalytic subunit activity): 50 to 100 µM | suppression of p300HAT-mediated incorporation of acetyl groups relative to control enzyme (p300 catalytic domain; 50 μM inhibitor, H3 peptide substrate, FIG. 1C): 88%

CC(=O)NCCSCC(=O)NCCCNCCCCN [3a]
body weight [2]: did not lose weight | signs of toxicity ([2]; 4 mice): no signs of distress or illness | inhibitory activity against endogenous HAT [3]: lower inhibitory effect than Spd-2a

CC[C@@]1(O)C(=O)OCc2c1cc1n(c2=O)Cc2cc3ccccc3nc2-1 [camptothecin]
3-day viability, single agent [4]: no effect

CC(=O)NCCSCC(=O)NCCCNCCCCNCCCN [spm-3]
p300 HAT inhibition in vitro (p300 catalytic domain; kit assay, 2a at 50 μM): HAT inhibitors
